# Tested on: cutaneous local thermal hyperemia response
# Experiment: Cutaneous local thermal hyperemia test by laser Doppler flowmetry before and after chemical intervention (oral β-blocker)
# Assay type: in vivo, human
# Conditions: subject with panic disorder, 30 minutes after oral propranolol 10 mg
# Procedure: The participants were supine during the entire test period. Cutaneous blood flow was measured by LDF (Moor DRT4, Moor Instruments Ltd, Axminster, Devon, UK). For each measurement, blood pressure was recorded continuously with a non-invasive blood pressure monitor (CareTaker, Empirical Technologies Corporation, Charlottesville, Va., USA) on the middle finger of the dominant hand throughout the procedures.
# Blood flow was recorded simultaneously on the upper one-fourth of the bilateral forearm using LDF (DP12-V2 probe, 2 channels, length: 12 mm, diameter 1.5 mm; Moor Instruments Ltd.), and two recording sites were located at the radial half of the flexor and extensor aspects of the forearm, which were located according to a predefined rule. The probe was mounted to a probe holder to hold the probe in position. The extensor and flexor recording sites were located along the line between the extensor and flexor aspects of the lateral epicondyle of the humerus, respectively, and the lateral side of the styloid process of radius. The same sites were measured bilaterally with the flexor and extensor aspects in a random sequence. The recording sites were kept thermally neutral at 33° C. by a heater (SH02-SHP2 probe, Moor Instruments Ltd.) for 5 minutes for the baseline measurement, and then the temperature was increased to 42° C. by 1° C./10 seconds and maintained at 42° C. for up to 5 minutes. After completing the measurements, the holders were maintained in situ, and all of the procedures were repeated with the same recording sequence 45 minutes after the first measurement. The holders were then removed without marking after the first day of the experiment. The same procedures were conducted at the same time 1 to 3 days later, and the recording sites were relocated according to the same predefined rule.
# Cutaneous red blood cell flux (RBCF), expressed as arbitrary perfusion units (PUs), was used to indicate local cutaneous blood flow, and CVC (PU/mmHg), which derived from RBCF divided by mean arterial pressure to adjust for the influence of blood pressure, was the indicator of blood flow change.
# Baseline CVC, peak CVC, absolute change of peak CVC, percent change of peak CVC, 4 minutes area-under-the-curve (AUC), and time to peak flux were used as indicators of the hyperemic response during heating. The absolute change of peak CVC was defined as the peak CVC minus baseline CVC, and the percentage of peak CVC change equals to the absolute change of peak CVC divided by baseline CVC multiplied by 100%. The 4 minutes AUC was the accumulation of blood flux during the first 4 minutes of the heating period. The time to peak flux was the period from the heating started and up to peak flux.
# Upon arrival in the laboratory, the subjects were arranged on chairs in a temperature- and humidity-controlled laboratory (40-60% humidity, 25±1° C.) for acclimation of 30 minutes. After the acclimation period, the thermal hyperemia test was performed at specified sampling sites. The participants were supine during the entire test period. Cutaneous blood flow was measured by LDF (Moor DRT4, Moor Instruments Ltd, Axminster, Devon, UK). For each measurement, blood pressure was recorded continuously with a non-invasive blood pressure monitor (CareTaker, Empirical Technologies Corporation, Charlottesville, Va., USA) on the middle finger of the dominant hand throughout the procedures. The sampling and data processing procedures taught in Example 1, above, also applied in the present example.
# Subject (45 kg) suffering from panic disorder was sampled at the infraclavicular, parasternal and axilla sites (points (i), (j) and (l) in FIG. 2) on both the right and left sides before and after the administration of β-blocker. Specifically, the post-β-blocker sampling procedure was performed at 30 minutes after the oral administration of β-blocker, propranolol, (10 mg).
compound,measurement,setting,value
CC(C)NCC(O)COc1cccc2ccccc12 (stereo not drawn) [propranolol],"CVCI, max, After","Axilla, left",1.09 PU/mmHg
same,"Initial AUC, After","Axilla, left",17019 PU
same,"ΔCVC, After","Axilla, left",0.92 PU/mmHg
same,"CVCI, max, After","Axilla, right",1.91 PU/mmHg
same,"Initial AUC, After","Axilla, right",31740 PU
same,"ΔCVC, After","Axilla, right",1.63 PU/mmHg
same,"CVCI, max, After","Infraclavicular, left",1.03 PU/mmHg
same,"Initial AUC, After","Infraclavicular, left",17298 PU
same,"ΔCVC, After","Infraclavicular, left",0.88 PU/mmHg
same,"CVCI, max, After","Infraclavicular, right",1.95 PU/mmHg
same,"Initial AUC, After","Infraclavicular, right",33797 PU
same,"ΔCVC, After","Infraclavicular, right",1.76 PU/mmHg
same,"CVCI, max, After","Parasternal, left",1.45 PU/mmHg
same,"Initial AUC, After","Parasternal, left",26800 PU
same,"ΔCVC, After","Parasternal, left",1.28 PU/mmHg
same,"CVCI, max, After","Parasternal, right",2.53 PU/mmHg
same,"Initial AUC, After","Parasternal, right",47602 PU
same,"ΔCVC, After","Parasternal, right",2.36 PU/mmHg
